Literature values in US20180185454A1, “AGENT FOR PREVENTING ONSET OF IDIOPATHIC OSTEONECROSIS OF FEMORAL HEAD AND/OR SUPPRESSING PROGRESS OF SAME” (ASAHI KASEI PHARMA CORPORATION, priority 2015, published 2018).
Where two headings read alike, the source gives them in different places.

Assays:
ION = conditions: vs alendronate control; no statistical superiority between the two groups; dosage not disclosed
[1] = system: osteonecrosis of the jawbone; conditions: induced by bisphosphonates and denosumab

CC[C@H](C)[C@H](NC(=O)[C@H](CCC(=O)O)NC(=O)[C@H](CO)NC(=O)[C@@H](NC(=O)[C@@H](N)CO)C(C)C)C(=O)N[C@@H](CCC(N)=O)C(=O)N[C@@H](CC(C)C)C(=O)N[C@@H](CCSC)C(=O)N[C@@H](Cc1cnc[nH]1)C(=O)N[C@@H](CC(N)=O)C(=O)N[C@@H](CC(C)C)C(=O)NCC(=O)N[C@@H](CCCCN)C(=O)N[C@@H](Cc1cnc[nH]1)C(=O)N[C@@H](CC(C)C)C(=O)N[C@@H](CC(N)=O)C(=O)N[C@@H](CO)C(=O)N[C@@H](CCSC)C(=O)N[C@@H](CCC(=O)O)C(=O)N[C@@H](CCCN=C(N)N)C(=O)N[C@H](C(=O)N[C@@H](CCC(=O)O)C(=O)N[C@@H](Cc1c[nH]c2ccccc12)C(=O)N[C@@H](CC(C)C)C(=O)N[C@@H](CCCN=C(N)N)C(=O)N[C@@H](CCCCN)C(=O)N[C@@H](CCCCN)C(=O)N[C@@H](CC(C)C)C(=O)N[C@@H](CCC(N)=O)C(=O)N[C@@H](CC(=O)O)C(=O)N[C@H](C(=O)N[C@@H](Cc1cnc[nH]1)C(=O)N[C@@H](CC(N)=O)C(=O)N[C@@H](Cc1ccccc1)C(=O)O)C(C)C)C(C)C [teriparatide]
effect on bone formation markers (bone formation markers; 20 μg daily formulation): markedly increases
effect on bone formation markers (bone formation markers; 56.5 μg once-a-week formulation): only slightly
femoral head collapse progress (difference in collapse values before and after administration, simple x-ray frontal views) (ION): tended to suppress femoral head collapse progress in comparison to alendronate
effect against osteonecrosis of the jawbone [1]: have an effect
